Results taken from the supplement of paper PMC10307832.

Tests used:
Experiment in all cases: relative viability (nuclei count vs DMSO), 5 days (fraction); higher = more cells survive
AGI-6780 + Navitoclax = compound: O=C(Nc1cccc(C(F)(F)F)c1)Nc1cc(S(=O)(=O)NC2CC2)ccc1-c1ccsc1 [AGI-6780] + CC1(C)CCC(c2ccc(Cl)cc2)=C(CN2CCN(c3ccc(C(=O)NS(=O)(=O)c4ccc(N[C@H](CCN5CCOCC5)CSc5ccccc5)c(S(=O)(=O)C(F)(F)F)c4)cc3)CC2)C1 [Navitoclax] (partner 0.5 µM)
Method in brief: (§1)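 Each reported value is a median over duplicate plates. It expresses relative viability: treated-well nuclei count divided by vehicle-well nuclei count. Lung cancer cell lines in 1536-well plates were dosed by pin tool a day after seeding, alone with one drug or with a fixed anchor-drug dose plus five library-drug doses (not always all listed) in √10 steps, and nuclei were counted after 5 days.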

AGI-6780 + Crizotinib = compound: O=C(Nc1cccc(C(F)(F)F)c1)Nc1cc(S(=O)(=O)NC2CC2)ccc1-c1ccsc1 [AGI-6780] + C[C@@H](Oc1cc(-c2cnn(C3CCNCC3)c2)cnc1N)c1c(Cl)ccc(F)c1Cl [Crizotinib] (partner 1 µM)
Method in brief: as §1

AGI-6780 + Phenformin = compound: O=C(Nc1cccc(C(F)(F)F)c1)Nc1cc(S(=O)(=O)NC2CC2)ccc1-c1ccsc1 [AGI-6780] + N=C(N)NC(=N)NCCc1ccccc1 [Phenformin] (partner 250 µM)
Method in brief: as §1

AGI-6780 + Decitabine = compound: O=C(Nc1cccc(C(F)(F)F)c1)Nc1cc(S(=O)(=O)NC2CC2)ccc1-c1ccsc1 [AGI-6780] + Nc1ncn([C@H]2C[C@H](O)[C@@H](CO)O2)c(=O)n1 [Decitabine] (partner 2 µM)
Method in brief: as §1

Cell Line	relative viability (AGI-6780 + Navitoclax; first compound 0.08 µM)	relative viability (AGI-6780 + Navitoclax; first compound 0.253 µM)	relative viability (AGI-6780 + Navitoclax; first compound 0.8 µM)	relative viability (AGI-6780 + Navitoclax; first compound 2.53 µM)	relative viability (AGI-6780 + Navitoclax; first compound 8 µM)	relative viability (AGI-6780 + Crizotinib; first compound 0.08 µM)	relative viability (AGI-6780 + Crizotinib; first compound 0.253 µM)	relative viability (AGI-6780 + Crizotinib; first compound 0.8 µM)	relative viability (AGI-6780 + Crizotinib; first compound 2.53 µM)	relative viability (AGI-6780 + Crizotinib; first compound 8 µM)	relative viability (AGI-6780 + Phenformin; first compound 0.08 µM)	relative viability (AGI-6780 + Phenformin; first compound 0.253 µM)	relative viability (AGI-6780 + Phenformin; first compound 0.8 µM)	relative viability (AGI-6780 + Phenformin; first compound 2.53 µM)	relative viability (AGI-6780 + Phenformin; first compound 8 µM)	relative viability (AGI-6780 + Decitabine; first compound 0.08 µM)	relative viability (AGI-6780 + Decitabine; first compound 0.253 µM)	relative viability (AGI-6780 + Decitabine; first compound 0.8 µM)	relative viability (AGI-6780 + Decitabine; first compound 2.53 µM)	relative viability (AGI-6780 + Decitabine; first compound 8 µM)
LU99A	0.786	0.842	0.823	0.741	0.809	0.606	0.484	0.627	0.473	0.669	0.866	0.747	0.815	0.773	0.79	0.889	1.09	0.903	0.805	0.988
LXF-289	0.967	0.939	0.936	0.987	0.939	0.84	0.798	0.795	0.83	0.771	0.516	0.518	0.538	0.529	0.541	0.33	0.393	0.358	0.311	0.366
NCI-H23	0.844	0.951	0.835	0.555	0.802	0.56	0.633	0.629	0.539	0.544	0.822	0.747	0.766	0.719	0.784	0.3	0.327	0.285	0.294	0.313
NCI-H322M	1.11	1.14	1.28	1.24	1.21	0.785	0.861	1.02	0.986	0.858	0.755	0.788	0.816	0.808	0.85		0.799	0.68	0.612	0.708
NCI-H441	0.702	0.993	0.604	0.487	0.663	0.766	0.988	1.05	0.513	0.887	1.07	0.964	0.822	0.668	0.787	0.221	0.28	0.25	0.204	0.241
NCI-H460	1.14	1.03	1.04	1.14	1.14	0.912	0.963	1.19	0.759	1.06	0.529	0.527	0.568	0.585	0.524	0.547	0.453	0.552	0.446	0.512
NCI-H520	1.04	1.12	1.18	1.05	1.05	0.936	0.729	1.12	0.753	0.774	0.733	0.699	0.743	0.431	0.622	0.599	0.482	0.434	0.392	0.467
NCI-H596	0.91	1.02	0.927	0.774	0.929	0.928	1	0.912	0.773	1.03	0.739	0.876	0.758		0.752	1.65	0.981	0.991	0.73	0.924
NCI-H647	1.2	1.22	1.33	1.09	1.19	1.1	1.13	1.38	0.96	1.15	0.409	0.609	0.729	0.408	0.744	0.438	0.478	0.411	0.297	0.401
NCI-H727	0.493	0.448	0.474	0.369	0.494	0.887	0.702	0.842	0.844	0.843	0.62	0.536	0.687	0.563	0.698	0.939	0.95	0.857	0.951	0.897
NCI-H838	1.19	1.09	1.17	1.06	1.11	0.979	0.795	0.973	0.812	0.844	0.644	0.637	0.643	0.516	0.631	0.445	0.495	0.479	0.506	0.47
NCI-H1355	1.01	1.05	0.984	0.932	0.946	1.04	1.02	1.08	0.943	1.01	0.485	0.451	0.484	0.393	0.448	0.353	0.419	0.357	0.34	0.355
NCI-H1437	1.19	1.06	1.12	1.07	0.966	0.974	0.87	0.922	0.965	0.916	0.337	0.382	0.298	0.327	0.343	0.572	0.587	0.594	0.583	0.576
NCI-H1650	1.25	1.08	1.29	1.19	1.14	0.966	1.01	1.14	0.938	1.02	0.387	0.407	0.498	0.4	0.382	0.435	0.485	0.381	0.305	0.387
NCI-H1651	1.04	1.13	1.01	0.912	0.906	0.821	0.902	0.898	0.878	0.879	0.331	0.362	0.394	0.335	0.37	0.557	0.627	0.619	0.535	0.653
NCI-H1666	0.985	0.894	0.909		0.92	1.09	0.897	1.03		1.05	0.51	0.573	0.534	0.554	0.618	0.665	0.78	0.733	0.663	0.72
